The nature of experiment [1]: Reduction of mean arterial blood pressure in spontaneously hypertensive rats. The class given is in vivo, spontaneously hypertensive rats of the Okamoto strain. The note with it: gavage, 100 mg/kg or less, two doses 24 h apart, measured at 28 hours; average mean arterial blood pressure of the rats 160 mm Hg. As to the method: Certain of the novel compounds of the present invention are active hypotensive agents at non-toxic doses when administered to mammals. These compounds were tested for hypotensive activity by the method of P. S. Chan and D. Poorvin, Clinical and Experimental Hypertension, 1 (6), 817-830 (1979). Male, 16 week old, spontaneously hypertensive rats of the Okamoto strain having an average mean arterial blood pressure of 160+1.5 mm of mercury are used in the test. One to 3 rats are used per test compound. A rat is dosed by gavage with a test compound, suspended in 2% pre-boiled starch at a concentration of 50 mg/ml, at a dose of 100 mg/kg of body weight or less, with 0.9% sodium chloride loading at a dose of 25 ml/kg of body weight. A second identical dose of the test compound, without sodium chloride loading is given 24 hours later. At 28 hours after the initial dose the mean arterial blood pressure is measured by the method of Chan and Poorvin vide supra. The procedure is repeated in a second and third rat when necessary.

The nature of experiment [2]: Passive Avoidance Anoxic Induced Amnesia Test in mice. It counts as in vivo, Swiss-Webster mice. As to conditions: vs saline control, 30% considered active. From the text: Another in vivo test associated with decreased neural function in mammals is the Passive Avoidance Anoxic Induced Amnesia Test. This test is used to determine the attenuation of anoxic induced amnesia in mice treated with drug, as compared to saline treated control animals with no drug.
A shock-motivated, single trial, step-through passive avoidance procedure is used. Groups of 25 Swiss-Webster, middle-aged mice (9 months of age) are placed singly in the front chamber of a 2-chamber box and are allowed to voluntarily cross into the rear chamber. As soon as the mouse enters the rear chamber, a door automatically traps the animal and a mild electric shock (0.4 mA for 4 seconds) is delivered to its feet. Following the foot shock, the mice are initially placed in an anoxic environment (0% oxygen) for 12 seconds, which quickly induces unconsciousness. They are then placed in an hypoxic environment (15% oxygen) for four minutes which prolongs the oxygen deprived state, maintaining unconsciousness. All testing is performed 24 hours later, and in all cases the mice appear fully recovered from the previous anoxic/hypoxic treatment. All test compounds are administered intraperitoneally at a dose of 10-200 mg/kg, 30 minutes prior to training and testing. Control animals are injected intraperitoneally only with saline at 0.01 cc/g of body weight.
The latency to enter the rear chamber is recorded for both training and testing. Presumably, the more the animal remembers being shocked, the greater it will inhibit going into the rear chamber and the higher will be its latency to re-enter. An improvement of 30% over saline control scores is considered active.

A short description of experiment [3]: Hypoxic Survival Test in mice. It counts as in vivo, Royal Hart mice. The note with it: survival after 5 minutes; for % Survivors: 30 min before hypoxia. On the procedure:
A useful in vivo test that measures how effectively central nervous system-acting drugs enhance survival in a hypoxic environment, presumably by improving the ratio of energy supply to demand is known as the Hypoxic Survival Test. […] Drugs are tested by intraperitoneally injecting groups of mice 30 minutes prior to placing them in a hypoxic mixture and measuring survival. The rationale of this test is that drugs which enhance survival under hypoxic conditions without concomitant, depression or sedative side effects, may do so by enhancing energy metabolism, or by preserving normal brain function under conditions of reduced energy metabolism. Given the dependence of the brain on a constant supply of energy, drugs which have this property may have many far-reaching therapeutic indications, including recovery from stroke and closed head injury, as well as reducing the deleterious effects of the aging central nervous system.
Groups of 20 Royal Hart mice (6 weeks of age) are injected intraperitoneally with test compound (1-200 mg/kg) 30 minutes prior to placing them in a hypoxic mixture (10% oxygen in 90% […]) and measuring survival after 5 minutes.
A separate group of 20 mice is injected intraperitoneally with saline solution (0.01 cc/g of body weight) and processed as described above.
Still another group of 20 mice is injected intraperitoneally with 0.125 mg/kg of physostigmine and processed as described above.

Experiment [4] concerns brain-specific receptors of rats (3H-benzodiazepine binding). As to the kind of experiment: Inhibition of the binding of 3H-benzodiazepine to brain-specific receptors of rats. Set-up: species or system rat (Wistar strain). The note with it: rat cortex P2 fraction; 3H-diazepam 1.5 nM or 3H-flunitrazepam 1.0 nM; test concentration not given; 12% or more is active. From the text:
A test utilized for the determination of anxiolytic activity is the measurement of the ability of test compounds to inhibit the binding of tritiated benzodiazepines to brain-specific receptors of warm-blooded animals. A modification of the method described by R. F. Squires, et al., Nature, 266, No. 21, pg 732 (Apr. 1977) and H. Mohler, et al., Science, 198, pg 849 (1977) was employed.
Male albino rats (Wistar strain, weighing 150-200 g each) were used. The test compounds were solubilized in either dimethylformamide, acetic acid, ethanol or hydrochloric acid.
Whole cortex of rats was homogenized gently in 20 volumes of ice-cold 0.32 M sucrose, centrifuged twice at 1000 g for 10 minutes and then recentrifuged at 30,000 g for 20 minutes to produce a crude P2 -synaptosomal fraction. The P2 -fraction was either: (1) resuspended in twice the original volume in hypotonic 50 mM Tris.HCl (pH 7.4), or (2) resuspended in one-half the original volume in hypotonic 10 mM Tris.HCl (pH 7.4) and frozen (-20° C.) until time of use. Frozen P2 preparations were thawed and resuspended in four times the original homogenizing volume at time of assay.
The binding assay consisted of 300 μl of the P2 -fraction suspension (0.2-0.4 mg protein), 100 μl of test drug and 100 μl of ^3 H-diazepam (1.5 nM, final concentration) or ^3 H-flunitrazepam (1.0 nM, final concentration) which was added to 1.5 ml of 50 mM Tris.HCl (pH 7.4). Non-specific binding controls and total binding controls received 100 μl of diazepam (3 μM final concentration) and 100 μl of deionized water, respectively, in place of the test compound. Incubation for 30 minutes proceeded in ice and was terminated by filtration, under vacuum, through glass fiber filters. […] After drying at 50°-60° C. for 30 minutes, 10 ml of diluent was added and the radioactivity determined in a scintillation counter.
Inhibition of binding was calculated by the difference between total binding and binding in the presence of test compound, divided by the total binding, X 100. […]

Molecules are shown by their SMILES.

As to `O=c1c2ncn3c2n(c(=O)n1Cc1ccccc1)CC=C3c1cccc(C(F)(F)F)c1` [9-(Phenylmethyl)-4-[3-(trifluoromethyl)phenyl]-6H,8H-pyrimido[1,2,3-cd]purine-8,10(9H)-dione], the “Mean arterial blood pressure” value in experiment [1] is listed as 132 mm Hg.

For the compound `O=c1[nH]c(=O)n2c3c1ncn3C(c1ccc(N3CCOCC3)cc1)=CC2` [4-[4-(4-Morpholinyl)phenyl]-6H,8H-pyrimido[1,2,3-cd]purine-8,10(9H)-dione], the “% Improvement” value in experiment [2] (25 mg/kg i.p.) was 34%. In experiment [3] (100 mg/kg i.p.), the “% Survivors” value amounted to 55%. As to `CNC(=O)Oc1ccc2c(c1)[C@]1(C)CCN(C)[C@@H]1N2C` [physostigmine, reference compound], the “physostigmine treated mice surviving” value in experiment [3] (10% oxygen, 0.125 mg/kg i.p., saline controls 5-20%) was 60-80%.

With `CCn1c(=O)c2ncn3c2n(c1=O)CC=C3c1cccc(C(F)(F)F)c1` [9-Ethyl-4-[3-(trifluoromethyl)phenyl]-6H,8H-pyrimido[1,2,3-cd]purine-8,10(9H)-dione], the “% Inhibition of the binding of 3H-benzodiazepine” value (“% Inhibition” for short) in experiment [4] turned out to be 17%. Turning to `Cc1ccc(C2=CCn3c(=O)[nH]c(=O)c4ncn2c43)cc1` [4-(4-Methylphenyl)-6H,8H-pyrimido[1,2,3-cd]purine-8,10(9H)-dione], the “Mean arterial blood pressure” value in experiment [1] was found to be 127 mm Hg. Take `O=c1[nH]c(=O)n2c3c1ncn3C(c1cccc([N+](=O)[O-])c1)=CC2` [4-(3-Nitrophenyl)-6H,8H-pyrimido[1,2,3-cd]purine-8,10(9H)-dione]: in experiment [3] (200 mg/kg i.p.), the “% Survivors” value stood at 47%. Turning to `Cn1c(=O)c2ncn3c2n(c1=O)CC=C3c1cccc(C(F)(F)F)c1` [9-Methyl-4-[3-(trifluoromethyl)phenyl]-6H,8H-pyrimido[1,2,3-cd]purine-8,10(9H)-dione], the “% Improvement” value came to 66% in experiment [2] (10 mg/kg i.p.), 69% in experiment [2] (25 mg/kg i.p.), 56% in experiment [2] (50 mg/kg i.p.) and 39% in experiment [2] (100 mg/kg i.p.).

Turning to `O=c1[nH]c(=O)n2c3c1ncn3C(c1cccnc1)=CC2` [4-(3-Pyridinyl)-6H,8H-pyrimido[1,2,3-cd]purine-8,10(9H)-dione], the “Mean arterial blood pressure” value in experiment [1] came to 127 mm Hg. Regarding `O=c1[nH]c(=O)n2c3c1ncn3C(c1cccc(Cl)c1)=CC2` [4-(3-Chlorophenyl)-6H,8H-pyrimido[1,2,3-cd]purine-8,10(9H)-dione], the “% Improvement” value is 42% in experiment [2] (25 mg/kg i.p.) and 43% in experiment [2] (50 mg/kg i.p.). As to `O=c1[nH]c(=O)n2c3c1ncn3C(c1cccc(C(F)(F)F)c1)=CC2` [4-[3-(Trifluoromethyl)phenyl]-6H,8H-pyrimido[1,2,3-cd]purine-8,10(9H)-dione], the “% Improvement” value in experiment [2] (50 mg/kg i.p.) stood at 144%; in experiment [2] (100 mg/kg i.p.), 44%. Also, the “% Inhibition” value in experiment [4] turned out to be 54%. Take `CSc1nc(=O)c2ncn3c2n1CC=C3c1ccccc1` [8-(Methylthio)-4-phenyl-6H,10H-pyrimido[1,2-cd]-purin-10-one]: the “% Inhibition” value in experiment [4] came out at 13%.

The values above are taken from US4904658A, “Substituted-6H,8H-pyrimido-[1,2,3-cd]purine-8,10-(9H)-diones and substituted-6H,10H-pyrimido[1,2-cd]purin-10-ones” (American Cyanamid Company, priority 1988, dated 1990).
